Results: the NIST ThermoML archive (doi:10.1016/j.tca.2019.178383)
± gives the expanded uncertainty stated by the source.

Assay: xn = mol fraction of the nth substance listed
Settings: for surface tension liquid-gas: Maximal bubble pressure; for mass density: 100 kPa, Liquid, Vibrating tube method

CCn1cc[n+](CCOC)c1.O=S(=O)([O-])C(F)(F)F + CCCO
Settings | mass density [kg/m3] | surface tension liquid-gas [mN/m]
288.15 K, x1 = 0.0987 | 944.376 ± 2.7 | 23.4 ± 1.5
288.15 K, x1 = 0.1999 | 1043.54 ± 2.1 | 24.2 ± 1.5
288.15 K, x1 = 0.2982 | 1114.64 ± 1.8 | 25 ± 1.5
288.15 K, x1 = 0.3994 | 1171.5 ± 1.7 | 26.2 ± 1.5
288.15 K, x1 = 0.499 | 1215.82 ± 1.5 | 27.7 ± 1.5
288.15 K, x1 = 0.5993 | 1252.38 ± 1.5 | 29.5 ± 1.5
288.15 K, x1 = 0.6979 | 1282.09 ± 1.4 | 31.5 ± 1.5
288.15 K, x1 = 0.8009 | 1308.48 ± 1.4 | 33 ± 1.5
288.15 K, x1 = 0.8992 | 1329.95 ± 1.4 | 34.8 ± 1.5
288.15 K, x1 = 1 | 1348.94 ± 1.4 | 36.3 ± 1.5
293.15 K, x1 = 0.0987 | 940.25 ± 2.7 | 23.1 ± 1.5
293.15 K, x1 = 0.1999 | 1039.33 ± 2.1 | 23.8 ± 1.5
293.15 K, x1 = 0.2982 | 1110.4 ± 1.8 | 24.7 ± 1.5
293.15 K, x1 = 0.3994 | 1167.24 ± 1.7 | 25.9 ± 1.5
293.15 K, x1 = 0.499 | 1211.56 ± 1.5 | 27.4 ± 1.5
293.15 K, x1 = 0.5993 | 1248.12 ± 1.5 | 29.2 ± 1.5
293.15 K, x1 = 0.6979 | 1277.83 ± 1.4 | 31.3 ± 1.5
293.15 K, x1 = 0.8009 | 1304.21 ± 1.4 | 32.7 ± 1.5
293.15 K, x1 = 0.8992 | 1325.68 ± 1.4 | 34.6 ± 1.5
293.15 K, x1 = 1 | 1344.66 ± 1.4 | 36.1 ± 1.5
298.15 K, x1 = 0.0987 | 936.122 ± 2.7 | 22.7 ± 1.5
298.15 K, x1 = 0.1999 | 1035.12 ± 2.1 | 23.5 ± 1.5
298.15 K, x1 = 0.2982 | 1106.16 ± 1.8 | 24.3 ± 1.5
298.15 K, x1 = 0.3994 | 1162.99 ± 1.7 | 25.5 ± 1.5
298.15 K, x1 = 0.499 | 1207.32 ± 1.5 | 27.1 ± 1.5
298.15 K, x1 = 0.5993 | 1243.87 ± 1.5 | 28.9 ± 1.5
298.15 K, x1 = 0.6979 | 1273.58 ± 1.4 | 31 ± 1.5
298.15 K, x1 = 0.8009 | 1299.97 ± 1.4 | 32.5 ± 1.5
298.15 K, x1 = 0.8992 | 1321.43 ± 1.4 | 34.4 ± 1.5
298.15 K, x1 = 1 | 1340.41 ± 1.4 | 35.8 ± 1.5
303.15 K, x1 = 0.0987 | 931.974 ± 2.7 | 22.4 ± 1.5
303.15 K, x1 = 0.1999 | 1030.91 ± 2.1 | 23.1 ± 1.5
303.15 K, x1 = 0.2982 | 1101.93 ± 1.8 | 24 ± 1.5
303.15 K, x1 = 0.3994 | 1158.75 ± 1.7 | 25.1 ± 1.5
303.15 K, x1 = 0.499 | 1203.08 ± 1.5 | 26.7 ± 1.5
303.15 K, x1 = 0.5993 | 1239.64 ± 1.5 | 28.6 ± 1.5
303.15 K, x1 = 0.6979 | 1269.36 ± 1.4 | 30.7 ± 1.5
303.15 K, x1 = 0.8009 | 1295.75 ± 1.4 | 32.2 ± 1.5
303.15 K, x1 = 0.8992 | 1317.21 ± 1.4 | 34.2 ± 1.5
303.15 K, x1 = 1 | 1336.17 ± 1.4 | 35.5 ± 1.5
308.15 K, x1 = 0.0987 | 927.821 ± 2.7 | 22.1 ± 1.5
308.15 K, x1 = 0.1999 | 1026.69 ± 2.1 | 22.7 ± 1.5
308.15 K, x1 = 0.2982 | 1097.7 ± 1.8 | 23.6 ± 1.5
308.15 K, x1 = 0.3994 | 1154.52 ± 1.7 | 24.8 ± 1.5
308.15 K, x1 = 0.499 | 1198.86 ± 1.5 | 26.4 ± 1.5
308.15 K, x1 = 0.5993 | 1235.43 ± 1.5 | 28.3 ± 1.5
308.15 K, x1 = 0.6979 | 1265.15 ± 1.4 | 30.4 ± 1.5
308.15 K, x1 = 0.8009 | 1291.54 ± 1.4 | 32 ± 1.5
308.15 K, x1 = 0.8992 | 1313 ± 1.4 | 33.9 ± 1.5
308.15 K, x1 = 1 | 1331.96 ± 1.4 | 35.3 ± 1.5
313.15 K, x1 = 0.0987 | 923.647 ± 2.7 | 21.7 ± 1.5
313.15 K, x1 = 0.1999 | 1022.48 ± 2.1 | 22.4 ± 1.5
313.15 K, x1 = 0.2982 | 1093.47 ± 1.8 | 23.2 ± 1.5
313.15 K, x1 = 0.3994 | 1150.29 ± 1.7 | 24.5 ± 1.5
313.15 K, x1 = 0.499 | 1194.66 ± 1.5 | 26.1 ± 1.5
313.15 K, x1 = 0.5993 | 1231.23 ± 1.5 | 28 ± 1.5
313.15 K, x1 = 0.6979 | 1260.96 ± 1.4 | 30 ± 1.5
313.15 K, x1 = 0.8009 | 1287.35 ± 1.4 | 31.7 ± 1.5
313.15 K, x1 = 0.8992 | 1308.81 ± 1.4 | 33.7 ± 1.5
313.15 K, x1 = 1 | 1327.77 ± 1.4 | 35.1 ± 1.5
318.15 K, x1 = 0.0987 | 919.45 ± 2.7 | 21.3 ± 1.5
318.15 K, x1 = 0.1999 | 1018.44 ± 2.1 | 22.1 ± 1.5
318.15 K, x1 = 0.2982 | 1089.25 ± 1.8 | 22.8 ± 1.5
318.15 K, x1 = 0.3994 | 1146.1 ± 1.7 | 24.2 ± 1.5
318.15 K, x1 = 0.499 | 1190.46 ± 1.5 | 25.8 ± 1.5
318.15 K, x1 = 0.5993 | 1227.04 ± 1.5 | 27.8 ± 1.5
318.15 K, x1 = 0.6979 | 1256.78 ± 1.4 | 29.7 ± 1.5
318.15 K, x1 = 0.8009 | 1283.18 ± 1.4 | 31.4 ± 1.5
318.15 K, x1 = 0.8992 | 1304.63 ± 1.4 | 33.5 ± 1.5
318.15 K, x1 = 1 | 1323.6 ± 1.4 | 34.9 ± 1.5
